In PubChem BioAssay (NCI):
“And” between values parts separate entries of the source, which are not always exact repeats. Equal entries are not always repeated.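 Step 1: Grow cells in 96-well plates. Step 2: Expose to compound for 48 hours at 5 concentrations. Step 3: Interpolate endpoints linearly; if unreached, use highest concentration. At the GI50, growth is halved. TGI denotes the concentration required for complete inhibition of growth.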

Legend:
Assay in all cases: NCI tumour cell line growth inhibition, 48 h
[1] = tested on: SR leukemia
[2] = tested on: HOP-18 NSCLC
[3] = tested on: HCC-2998 colon
[4] = tested on: SK-MEL-2 melanoma
[5] = tested on: XF 498 CNS
[6] = tested on: SF-539 CNS
[7] = tested on: RXF-631 renal
[8] = tested on: UACC-257 melanoma
[9] = tested on: MALME-3M melanoma
[10] = tested on: K-562 leukemia
[11] = tested on: TK-10 renal
[12] = tested on: COLO 205 colon
[13] = tested on: LXFL 529 NSCLC
[14] = tested on: NCI-H23 lung
[15] = tested on: EKVX NSCLC
[16] = tested on: SNB-19 CNS
[17] = tested on: A498 renal
[18] = tested on: SK-MEL-28 melanoma
[19] = tested on: NCI-H522 lung
[20] = tested on: HOP-92 NSCLC
[21] = tested on: DLD-1 colon
[22] = tested on: OVCAR-5 ovarian
[23] = tested on: M19-MEL melanoma
[24] = tested on: UO-31 renal
[25] = tested on: HOP-62 NSCLC
[26] = tested on: SF-268 CNS
[27] = tested on: U251 CNS
[28] = tested on: 786-0 renal
[29] = tested on: SW-620 colon
[30] = tested on: RXF 393 renal
[31] = tested on: CCRF-CEM leukemia
[32] = tested on: HCT-116 colon
[33] = tested on: SK-MEL-5 melanoma
[34] = tested on: OVCAR-8 ovarian
[35] = tested on: UACC-62 melanoma
[36] = tested on: DMS 273 small cell lung
[37] = tested on: DMS 114 small cell lung
[38] = tested on: HT29 colon
[39] = tested on: OVCAR-4 ovarian
[40] = tested on: CAKI-1 renal
[41] = tested on: MOLT-4 leukemia
[42] = tested on: A549 NSCLC
[43] = tested on: KM12 colon
[44] = tested on: RPMI-8226 leukemia
[45] = tested on: HCT-15 colon
[46] = tested on: IGROV1 ovarian
[47] = tested on: SK-OV-3 ovarian
[48] = tested on: SN12C renal
[49] = tested on: KM20L2 colon
[50] = tested on: M14 melanoma
[51] = tested on: NCI-H460 lung
[52] = tested on: SNB-75 CNS
[53] = tested on: NCI-H226 lung
[54] = tested on: ACHN renal
[55] = tested on: LOX IMVI melanoma
[56] = tested on: SF-295 CNS
[57] = tested on: SNB-78 CNS
[58] = tested on: OVCAR-3 ovarian
[59] = tested on: HL-60(TB) leukemia
[60] = tested on: BT-549 breast
[61] = tested on: DU-145 prostate
[62] = tested on: T-47D breast
[63] = tested on: HS 578T breast
[64] = tested on: PC-3 prostate
[65] = tested on: MDA-MB-435
[66] = tested on: MDA-MB-231 breast
[67] = tested on: NCI/ADR-RES ovarian
[68] = tested on: MCF7 breast

CCOC(=O)Cn1c(=O)[nH]c(=O)c2c1ncn2Cc1ccccc1
TGI [1]: > 100 µM | TGI [2]: > 100 µM | TGI [3]: > 100 µM | TGI [4]: > 100 µM | TGI [5]: > 100 µM | TGI [6]: > 100 µM | TGI [7]: > 100 µM | TGI [8]: > 100 µM | TGI [9]: > 100 µM | TGI [10]: > 100 µM | TGI [11]: > 100 µM | TGI [12]: > 100 µM | TGI [13]: > 100 µM | TGI [14]: > 100 µM | TGI [15]: > 100 µM | TGI [16]: > 100 µM | TGI [17]: > 100 µM | TGI [18]: > 100 µM | TGI [19]: > 100 µM | TGI [20]: > 100 µM | TGI [21]: > 100 µM | TGI [22]: > 100 µM | TGI [23]: > 100 µM | TGI [24]: > 100 µM | TGI [25]: > 100 µM | TGI [26]: > 100 µM | TGI [27]: > 100 µM | TGI [28]: > 100 µM | TGI [29]: > 100 µM | TGI [30]: > 100 µM | TGI [31]: > 100 µM | TGI [32]: > 100 µM | TGI [33]: > 100 µM | TGI [34]: > 100 µM | TGI [35]: > 100 µM | TGI [36]: > 100 µM | TGI [37]: > 100 µM | TGI [38]: > 100 µM | TGI [39]: > 100 µM | TGI [40]: > 100 µM | TGI [41]: > 100 µM | TGI [42]: > 100 µM | TGI [43]: > 100 µM | TGI [44]: > 100 µM | TGI [45]: > 100 µM | TGI [46]: > 100 µM | TGI [47]: > 100 µM | TGI [48]: > 100 µM | TGI [49]: > 100 µM | TGI [50]: > 100 µM | TGI [51]: > 100 µM | TGI [52]: > 100 µM | TGI [53]: > 100 µM | TGI [54]: > 100 µM | TGI [55]: > 100 µM | TGI [56]: > 100 µM | TGI [57]: > 100 µM | TGI [58]: > 100 µM | TGI [59]: > 100 µM

CC(C)(O)/C=C/C(=O)[C@](C)(O)[C@H]1[C@H](O)C[C@@]2(C)[C@@H]3CC=C4[C@@H](C=C(O)C(=O)C4(C)C)[C@]3(C)C(=O)C[C@]12C
GI50 [1]: 1.2 µM and 0.33 µM | TGI [1]: > 4.6 µM and 9.08 µM and 14.5 µM | GI50 [2]: 0.276 µM and 0.602 µM | TGI [2]: 1.33 µM and 1.91 µM | GI50 [3]: 0.319 µM | TGI [4]: 0.597 µM and 1.32 µM and 1.16 µM | TGI [5]: 0.622 µM and 0.698 µM | GI50 [6]: 0.253 µM | GI50 [7]: 0.75 µM | TGI [7]: > 4.22 µM and 3.61 µM | TGI [8]: 1.84 µM and 3.94 µM and 1.62 µM | TGI [60]: 0.0362 µM | TGI [10]: > 9.25 µM and 11.2 µM | GI50 [11]: 0.36 µM and 1.68 µM | TGI [11]: 0.77 µM and 3.23 µM | GI50 [12]: 0.337 µM | TGI [12]: > 10 µM and 7.92 µM and 1.35 µM | TGI [61]: 1.9 µM | GI50 [13]: 0.712 µM | TGI [13]: 1.55 µM and 6.67 µM | TGI [14]: > 7.19 µM and 1.15 µM | TGI [62]: 4.27 µM | GI50 [16]: 0.407 µM | TGI [16]: 1.32 µM and 5.45 µM and 1.19 µM | GI50 [17]: 0.189 µM and 0.522 µM | TGI [17]: 0.392 µM and 1.09 µM | TGI [18]: 0.581 µM and 1.69 µM and 0.244 µM | GI50 [19]: 0.278 µM | TGI [63]: 7.66 µM | GI50 [20]: 0.255 µM | GI50 [21]: 0.291 µM and 0.721 µM | TGI [21]: > 6.13 µM and 6.58 µM | GI50 [23]: 0.929 µM and 2.16 µM | TGI [23]: > 10 µM | GI50 [24]: 0.195 µM | GI50 [25]: 0.442 µM | TGI [64]: 5.56 µM | GI50 [27]: 0.229 µM | GI50 [28]: 0.21 µM | TGI [29]: > 4.83 µM and 6.87 µM and 1.64 µM | TGI [65]: 0.885 µM | GI50 [31]: 0.253 µM and 0.709 µM | TGI [31]: 2.02 µM and 4.52 µM | TGI [32]: 3.63 µM and 7.31 µM and 1.15 µM | GI50 [33]: 0.31 µM | TGI [33]: 1.23 µM and 3.62 µM and 1.27 µM | TGI [34]: > 10 µM and 8.1 µM | TGI [35]: 4.97 µM and 8.94 µM and 1.76 µM | GI50 [36]: 0.282 µM | TGI [36]: 1.26 µM and 4.29 µM | GI50 [37]: 2 µM | TGI [37]: 5.21 µM and 9.71 µM | GI50 [39]: 0.343 µM | TGI [39]: 3.21 µM and 4.57 µM and 11.5 µM | GI50 [40]: 0.211 µM and 0.436 µM | TGI [40]: 0.473 µM and 0.813 µM | TGI [41]: > 7.73 µM and 24.6 µM | TGI [42]: > 5.82 µM and 8.6 µM and 10.3 µM | TGI [43]: > 10 µM and 2.33 µM | TGI [44]: 2.16 µM and 3.57 µM and 11 µM | GI50 [45]: 0.273 µM | TGI [45]: > 8.33 µM and 3.82 µM | TGI [66]: 0.0927 µM | GI50 [46]: 0.27 µM | TGI [46]: 0.688 µM and 4.45 µM and 4.6 µM | GI50 [48]: 0.431 µM | GI50 [49]: 0.66 µM | TGI [49]: > 5.6 µM | TGI [67]: 17.1 µM | TGI [51]: > 10 µM and 1.62 µM | TGI [68]: 10.5 µM | GI50 [52]: 0.0721 µM and 0.193 µM | GI50 [53]: 0.252 µM | GI50 [54]: 0.268 µM | GI50 [55]: 0.574 µM | TGI [55]: 1.3 µM and 3.18 µM | GI50 [56]: 0.275 µM | GI50 [57]: 0.737 µM | TGI [57]: 1.61 µM and 5.53 µM | GI50 [59]: 0.265 µM and 1.1 µM | TGI [59]: 0.935 µM and 2.54 µM
